In publication PMC3388095, “Fluorophore Labeled Kinase Detects Ligands That Bind within the MAPK Insert of p38α Kinase” (PLoS ONE, 2012):

Columns and labels:
Test in all cases: Kinase selectivity profile, 33P-ATP filter-binding assay
Type in all cases: biochemical
BRSK1 = BRSK1 (Homo sapiens, UniProt Q8TDC3)
Experimental: (§1) Figure 5 Kinase selectivity profile of 1b. Compound 1b was profiled against a selected panel of 95 different kinases at a concentration of 10 µM employing a radioactive (^33P-ATP) filter-binding assay (National Centre for Protein Kinase Profiling, Dundee). The numbers represent the remaining kinase activity in %. […] TEXT PRINTED IN THE PICTURE: no label printed: Aurora B: 53; MNK2: 67; MINK1: 69; HER4: 71; MKK1: 75; PKBβ: 75; PHK: 76; PIM2: 76; PIM3: 77; CHK2: 78; PKD1: 79; TBK1: 79; PAK4: 80; Lck: 80; GSK3β: 80; IGF-1R: 81; p38δ MAPK: 81; PIM1: 82; SRPK1: 83; SmMLCK: 83; MAPKAP-K3: 84; EPH A2: 85; MELK: 85; CK2: 85; CK1: 86; CAMK1: 86; PLK1: 87; MST2: 87; IR-HIS: 87; BTK: 87; HIPK1: 87; p38α MAPK: 88; DYRK2: 88; JNK3: 88; PAK5: 88; IKKε: 89; p38β MAPK: 89; NUAK1: 90; PAK2: 90; MNK1: 91; ERK8: 91; GCK: 91; PRAK: 91; MLK1: 92; SGK1: 92; PAK6: 92; TTK: 92; BRSK2: 92; MARK4: 93; CHK1: 93; RIPK2: 94; CDK2-Cyclin A: 94; JNK1: 94; AMPK: 94; VEG-FR: 95; DYRK1A: 95; CAMKKβ: 95; PKCα: 96; S6K1: 96; MSK1: 96; PKCz: 96; YES1: 96; RSK1: 97; IRAK4: 97; DYRK3: 97; IKKβ: 97; ERK2: 98; MLK3: 98; RSK2: 98; LKB1: 98; MAPKAP-K2: 98; ERK1: 99; FGF-R1: 99; SYK: 99; MST4: 99; MARK3: 99; MARK2: 100; PDK1: 100; JNK2: 101; HIPK2: 101; BRSK1: 102; EF2K: 102; PRK2: 103; Aurora A: 104; IRR: 104; CSK: 104; PKA: 104; NEK6: 105; p38γ MAPK: 105; Src: 107; PKBα: 109; ROCK 2: 109; EPH-B3: 112; HIPK3: 115; NEK2α: 119 DOUBTS OF THE COPYIST ABOUT THIS PICTURE: The picture prints no compound label and no measure or unit for the numbers; only the colour scale 'Inhibition weak/strong' is printed. / PKCz: the last letter may be z or ζ / NEK2α: the last letter may be a or α / IKKε: the last letter may be ε or e

Aurora B = Aurora B (Homo sapiens, UniProt Q96GD4)
Experimental: as §1

CHK1 = CHK1 (Homo sapiens, UniProt O14757)
Experimental: as §1

NEK2α = NEK2α (Homo sapiens, UniProt P51955)
Experimental: as §1

MST4 = MST4 (Homo sapiens, UniProt Q9P289)
Experimental: as §1

MAPKAP-K3 = MAPKAP-K3 (Homo sapiens, UniProt Q16644)
Experimental: as §1

CAMK1 = CAMK1 (Homo sapiens, UniProt Q14012)
Experimental: as §1

PKD1 = PKD1 (Homo sapiens, UniProt Q15139)
Experimental: as §1

PDK1 = PDK1 (Homo sapiens, UniProt O15530)
Experimental: as §1

CK2 = CK2 (Homo sapiens, UniProt P68400)
Experimental: as §1

EPH-B3 = EPH-B3 (Homo sapiens, UniProt P54753)
Experimental: as §1

PIM3 = PIM3 (Homo sapiens, UniProt Q86V86)
Experimental: as §1

PKBα = PKBα (Homo sapiens, UniProt P31749)
Experimental: as §1

HIPK3 = HIPK3 (Homo sapiens, UniProt Q9H422)
Experimental: as §1

EF2K = EF2K (Homo sapiens, UniProt O00418)
Experimental: as §1

RSK1 = RSK1 (Homo sapiens, UniProt Q15418)
Experimental: as §1

MELK = MELK (Homo sapiens, UniProt Q14680)
Experimental: as §1

CSK = CSK (Homo sapiens, UniProt P41240)
Experimental: as §1

SYK = SYK (Homo sapiens, UniProt P43405)
Experimental: as §1

MAPKAP-K2 = MAPKAP-K2 (Homo sapiens, UniProt P49137)
Experimental: as §1

p38δ MAPK = p38δ MAPK (Homo sapiens, UniProt O15264)
Experimental: as §1

IR-HIS = IR-HIS (Homo sapiens, UniProt P06213)
Experimental: as §1

RIPK2 = RIPK2 (Homo sapiens, UniProt O43353)
Experimental: as §1

GCK = GCK (Homo sapiens, UniProt Q12851)
Experimental: as §1

TBK1 = TBK1 (Homo sapiens, UniProt Q9UHD2)
Experimental: as §1

HIPK2 = HIPK2 (Homo sapiens, UniProt Q9H2X6)
Experimental: as §1

RSK2 = RSK2 (Homo sapiens, UniProt P51812)
Experimental: as §1

Chain of CHK1 (O14757 whole entry): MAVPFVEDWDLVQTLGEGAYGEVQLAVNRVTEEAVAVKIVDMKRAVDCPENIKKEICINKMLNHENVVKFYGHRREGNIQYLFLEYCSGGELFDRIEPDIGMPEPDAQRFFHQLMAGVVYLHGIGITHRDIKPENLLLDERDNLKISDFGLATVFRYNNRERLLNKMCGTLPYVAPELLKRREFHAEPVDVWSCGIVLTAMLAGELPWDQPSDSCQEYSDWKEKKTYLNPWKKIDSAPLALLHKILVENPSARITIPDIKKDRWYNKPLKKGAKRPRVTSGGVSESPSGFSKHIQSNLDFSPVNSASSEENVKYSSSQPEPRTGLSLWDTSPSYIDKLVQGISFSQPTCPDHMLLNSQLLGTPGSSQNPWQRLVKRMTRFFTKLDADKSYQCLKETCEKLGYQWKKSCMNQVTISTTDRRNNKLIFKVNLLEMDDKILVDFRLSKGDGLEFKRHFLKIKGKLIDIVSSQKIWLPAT
Chain of Aurora B (Q96GD4 whole entry): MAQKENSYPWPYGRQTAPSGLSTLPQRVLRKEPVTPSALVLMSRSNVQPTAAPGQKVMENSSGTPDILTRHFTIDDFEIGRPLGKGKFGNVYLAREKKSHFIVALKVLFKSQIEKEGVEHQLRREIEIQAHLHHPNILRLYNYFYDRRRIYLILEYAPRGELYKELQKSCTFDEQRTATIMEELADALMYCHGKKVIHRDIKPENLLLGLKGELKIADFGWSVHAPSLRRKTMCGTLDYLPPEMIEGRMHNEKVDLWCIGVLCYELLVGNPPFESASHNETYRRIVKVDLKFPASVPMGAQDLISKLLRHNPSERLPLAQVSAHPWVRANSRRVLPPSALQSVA
Chain of RSK1 (Q15418 whole entry): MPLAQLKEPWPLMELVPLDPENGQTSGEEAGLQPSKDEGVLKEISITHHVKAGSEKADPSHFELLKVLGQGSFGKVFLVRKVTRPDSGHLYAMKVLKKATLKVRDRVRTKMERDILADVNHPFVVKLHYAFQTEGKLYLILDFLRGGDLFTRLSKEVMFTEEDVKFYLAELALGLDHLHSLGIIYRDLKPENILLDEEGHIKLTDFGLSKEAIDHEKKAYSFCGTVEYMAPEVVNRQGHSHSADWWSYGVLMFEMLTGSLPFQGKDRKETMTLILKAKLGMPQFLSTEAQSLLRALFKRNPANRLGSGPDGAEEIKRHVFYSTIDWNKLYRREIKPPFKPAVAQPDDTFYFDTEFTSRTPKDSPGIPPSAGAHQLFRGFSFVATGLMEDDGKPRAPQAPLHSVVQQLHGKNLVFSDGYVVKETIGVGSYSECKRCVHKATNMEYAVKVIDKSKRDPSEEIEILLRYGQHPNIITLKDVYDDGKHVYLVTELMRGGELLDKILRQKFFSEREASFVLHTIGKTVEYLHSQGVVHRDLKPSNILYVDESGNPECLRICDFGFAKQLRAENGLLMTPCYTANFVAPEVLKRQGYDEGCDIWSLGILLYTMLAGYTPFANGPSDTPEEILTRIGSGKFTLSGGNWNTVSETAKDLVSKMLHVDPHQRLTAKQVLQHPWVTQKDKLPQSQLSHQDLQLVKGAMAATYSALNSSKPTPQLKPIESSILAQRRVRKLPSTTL
Chain of PKBα (P31749 whole entry): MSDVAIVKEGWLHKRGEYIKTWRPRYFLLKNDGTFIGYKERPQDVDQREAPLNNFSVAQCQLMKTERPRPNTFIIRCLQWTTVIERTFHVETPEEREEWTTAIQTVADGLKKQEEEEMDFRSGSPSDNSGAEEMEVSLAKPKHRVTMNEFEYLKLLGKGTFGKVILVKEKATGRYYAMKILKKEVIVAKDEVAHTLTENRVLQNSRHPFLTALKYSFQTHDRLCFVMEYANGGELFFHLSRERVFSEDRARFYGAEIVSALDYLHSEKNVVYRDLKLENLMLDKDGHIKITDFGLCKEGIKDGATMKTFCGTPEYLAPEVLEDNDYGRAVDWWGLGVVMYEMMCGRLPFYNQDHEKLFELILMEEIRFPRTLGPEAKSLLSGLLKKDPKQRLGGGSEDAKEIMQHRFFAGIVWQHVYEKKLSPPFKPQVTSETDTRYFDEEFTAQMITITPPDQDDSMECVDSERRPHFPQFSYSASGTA
Chain of HIPK2 (Q9H2X6 whole entry): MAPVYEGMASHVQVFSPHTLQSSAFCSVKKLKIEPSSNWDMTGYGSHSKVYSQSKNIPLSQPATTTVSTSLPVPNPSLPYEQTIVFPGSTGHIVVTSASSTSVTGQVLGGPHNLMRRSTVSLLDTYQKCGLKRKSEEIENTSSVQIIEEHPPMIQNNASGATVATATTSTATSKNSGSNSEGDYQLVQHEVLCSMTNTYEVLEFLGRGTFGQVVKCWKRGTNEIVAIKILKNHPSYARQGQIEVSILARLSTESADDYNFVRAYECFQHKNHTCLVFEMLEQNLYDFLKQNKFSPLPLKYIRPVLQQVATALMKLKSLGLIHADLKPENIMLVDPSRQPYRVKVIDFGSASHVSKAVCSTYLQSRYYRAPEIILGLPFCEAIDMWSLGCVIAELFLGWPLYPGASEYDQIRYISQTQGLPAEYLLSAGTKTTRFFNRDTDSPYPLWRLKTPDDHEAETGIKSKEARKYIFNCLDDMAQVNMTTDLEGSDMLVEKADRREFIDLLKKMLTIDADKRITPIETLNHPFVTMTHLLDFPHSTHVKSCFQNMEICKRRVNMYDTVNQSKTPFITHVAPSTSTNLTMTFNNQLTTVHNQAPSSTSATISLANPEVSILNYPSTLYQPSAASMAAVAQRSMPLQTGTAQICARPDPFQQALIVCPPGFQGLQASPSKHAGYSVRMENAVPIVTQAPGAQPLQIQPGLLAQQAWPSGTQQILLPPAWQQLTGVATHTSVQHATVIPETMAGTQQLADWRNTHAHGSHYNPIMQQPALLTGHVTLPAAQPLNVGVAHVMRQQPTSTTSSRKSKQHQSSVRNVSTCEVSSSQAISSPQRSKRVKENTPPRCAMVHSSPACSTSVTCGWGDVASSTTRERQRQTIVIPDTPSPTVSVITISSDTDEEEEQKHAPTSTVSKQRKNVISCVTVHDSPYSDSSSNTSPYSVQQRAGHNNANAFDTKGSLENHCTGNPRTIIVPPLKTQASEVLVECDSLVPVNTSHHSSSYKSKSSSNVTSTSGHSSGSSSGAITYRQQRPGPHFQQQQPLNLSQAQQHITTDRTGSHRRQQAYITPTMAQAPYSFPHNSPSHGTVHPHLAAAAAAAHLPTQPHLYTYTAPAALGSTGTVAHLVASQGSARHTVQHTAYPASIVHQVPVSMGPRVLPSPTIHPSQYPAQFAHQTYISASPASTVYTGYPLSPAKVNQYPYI
Chain of MAPKAP-K3 (Q16644 whole entry): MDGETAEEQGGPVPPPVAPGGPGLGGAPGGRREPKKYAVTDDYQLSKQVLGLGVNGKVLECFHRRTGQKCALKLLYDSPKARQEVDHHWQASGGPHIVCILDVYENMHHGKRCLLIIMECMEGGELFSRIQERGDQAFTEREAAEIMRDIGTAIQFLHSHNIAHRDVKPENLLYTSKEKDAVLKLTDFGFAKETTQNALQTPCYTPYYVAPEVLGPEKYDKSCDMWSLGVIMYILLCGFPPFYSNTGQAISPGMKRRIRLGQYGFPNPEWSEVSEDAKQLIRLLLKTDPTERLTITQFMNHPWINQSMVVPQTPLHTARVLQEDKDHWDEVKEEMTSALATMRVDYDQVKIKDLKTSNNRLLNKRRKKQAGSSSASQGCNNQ
Chain of NEK2α (P51955 whole entry): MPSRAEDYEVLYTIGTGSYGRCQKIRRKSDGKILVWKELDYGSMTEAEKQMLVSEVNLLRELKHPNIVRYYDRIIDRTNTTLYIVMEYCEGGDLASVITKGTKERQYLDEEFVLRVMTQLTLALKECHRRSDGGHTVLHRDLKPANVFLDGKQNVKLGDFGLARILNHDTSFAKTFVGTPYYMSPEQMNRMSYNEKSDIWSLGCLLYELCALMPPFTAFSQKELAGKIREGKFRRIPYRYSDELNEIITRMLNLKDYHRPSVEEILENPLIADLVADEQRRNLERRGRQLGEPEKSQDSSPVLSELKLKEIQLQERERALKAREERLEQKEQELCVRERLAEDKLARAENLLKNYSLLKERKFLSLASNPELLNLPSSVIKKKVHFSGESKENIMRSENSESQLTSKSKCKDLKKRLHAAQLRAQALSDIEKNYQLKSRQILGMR
Chain of BRSK1 (Q8TDC3 whole entry): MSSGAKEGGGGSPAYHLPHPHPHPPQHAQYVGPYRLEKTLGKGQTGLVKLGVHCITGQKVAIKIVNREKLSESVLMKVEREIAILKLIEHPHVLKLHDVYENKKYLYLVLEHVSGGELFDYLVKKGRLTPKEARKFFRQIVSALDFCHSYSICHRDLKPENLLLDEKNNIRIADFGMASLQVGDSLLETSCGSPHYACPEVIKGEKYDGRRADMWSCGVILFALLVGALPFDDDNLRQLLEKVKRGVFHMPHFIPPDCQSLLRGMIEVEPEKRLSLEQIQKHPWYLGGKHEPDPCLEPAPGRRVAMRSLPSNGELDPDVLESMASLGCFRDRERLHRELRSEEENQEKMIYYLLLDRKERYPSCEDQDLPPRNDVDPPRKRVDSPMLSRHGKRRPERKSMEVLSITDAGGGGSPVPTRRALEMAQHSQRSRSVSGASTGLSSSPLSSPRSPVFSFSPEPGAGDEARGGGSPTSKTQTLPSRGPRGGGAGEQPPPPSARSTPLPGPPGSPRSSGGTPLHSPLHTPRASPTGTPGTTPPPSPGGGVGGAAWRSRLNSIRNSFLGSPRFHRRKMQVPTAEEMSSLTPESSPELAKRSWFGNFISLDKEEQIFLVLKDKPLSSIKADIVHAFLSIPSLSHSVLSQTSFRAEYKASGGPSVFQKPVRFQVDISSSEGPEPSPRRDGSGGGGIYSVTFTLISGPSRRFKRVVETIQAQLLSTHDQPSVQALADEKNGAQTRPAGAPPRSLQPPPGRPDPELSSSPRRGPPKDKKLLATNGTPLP

Nc1ccc2c(NC3CC3)nc(-c3ccccc3)nc2c1 [1b, N^4-Cyclopropyl-2-phenyl-4,7-quinazolinediamine]
remaining activity at 10 µM (BRSK1): 102%
remaining activity at 10 µM (Aurora B): 53%
remaining activity at 10 µM (CHK1): 93%
remaining activity at 10 µM (NEK2α): 119%
remaining activity at 10 µM (MST4): 99%
remaining activity at 10 µM (MAPKAP-K3): 84%
remaining activity at 10 µM (CAMK1): 86%
remaining activity at 10 µM (PKD1): 79%
remaining activity at 10 µM (PDK1): 100%
remaining activity at 10 µM (CK2): 85%
remaining activity at 10 µM (EPH-B3): 112%
remaining activity at 10 µM (PIM3): 77%
remaining activity at 10 µM (PKBα): 109%
remaining activity at 10 µM (HIPK3): 115%
remaining activity at 10 µM (EF2K): 102%
remaining activity at 10 µM (RSK1): 97%
remaining activity at 10 µM (MELK): 85%
remaining activity at 10 µM (CSK): 104%
remaining activity at 10 µM (SYK): 99%
remaining activity at 10 µM (MAPKAP-K2): 98%
remaining activity at 10 µM (p38δ MAPK): 81%
remaining activity at 10 µM (IR-HIS): 87%
remaining activity at 10 µM (RIPK2): 94%
remaining activity at 10 µM (GCK): 91%
remaining activity at 10 µM (TBK1): 79%
remaining activity at 10 µM (HIPK2): 101%
remaining activity at 10 µM (RSK2): 98%
